Values after ≈ are worked out from the molar mass of the structure shown.
How the values were obtained:
[1] = system: S. aureus (ATCC #29213) cells; experiment: Membrane depolarization assay (DiOC2(3), flow cytometry); assay type: cell-based; settings: positive control, 10 μL of 500 μM in 1 mL
Method: S. aureus (ATCC #29213) cells were grown to log phase (14 h) in Mueller Hinton Broth cation-adjusted (MHB50) and were diluted to 0.07 OD600 with media. One mL aliquots were transferred to 1.5 mL centrifuge tubes and treated with the following in triplicate: 10 μL DMSO (control), 10 μL of 600 μg/mL ecteinamycin, 10 μL of 3.2 mg/mL ecteinamycin (1), 10 μL of 500 μM carbonyl cyanide m-chlorophenythydrazone (CCCP), and 10 μL of 3.2 mg/mL rifampicin. Additionally, each tube received 10 μL of 3 mM DiOC2(3) (3,3′-diethyloxacarbocyanine iodide). The tubes were shaken for 15 minutes at room temperature. The cells were then analyzed with a FACSCalibur (BD Biosciences) flow cytometer and CellQuestPro software (BD Biosciences). Collected data represent the geometric means of fluorescence of 40,000 gated events.
Flow cytometry was used to determine if ecteinamycin, like other polyether ionophore antibiotics, depolarizes cell membranes. 3,3′-diethyloxacarbocyanine iodide (“DiOC2(3)”) fluoresces green in bacterial cells but shifts to red when the cell membrane is depolarized. Therefore, the ratio of red to green fluorescence is indicative of the membrane potential. S. aureus ATCC […] cells were treated with ecteinamycin at concentrations of 6 and 32 μg/mL.
All cells except the DMSO negative control were treated with DiOC2(3) and analyzed by flow cytometry. […]

[2] = system: C. difficile; settings: reported; cited from earlier work
[3] = system: MRSA (ATCC #33591); experiment: MIC, dilution antimicrobial susceptibility test; assay type: cell-based, Methicillin-resistant Staphylococcus aureus; settings: Staphylococcus aureus, 18 h
Method: (§1) Ecteinamycin was tested for antibacterial activity against C. difficile (ATCC BAA-1870), MRSA (ATCC #33591), MSSA (ATCC #29213), E. coli (ATCC #25922), P. aeruginosa (ATCC #27853), and VRE (ATCC), and MICs were determined using a dilution antimicrobial susceptibility test for aerobic (MRSA, MSSA, E. coli, P. aeruginosa, and VRE) and anaerobic (C. difficile) bacteria. Ecteinamycin was dissolved in DMSO, serially diluted to 10 concentrations (0.0313-32 μg/mL), and tested in a 96-well plate. […] Ecteinamycin and vancomycin were tested in triplicate. Six untreated media controls were included on each plate. For MRSA, MSSA, E. coli, and P. aeruginosa, the plates were incubated at 33° C. for 18 h. For C. difficile, the plate was incubated at 36° C. for 48 h anaerobically and then read visually using a mirror apparatus. All manipulations to the plate were done inside the anaerobe chamber. The MIC was determined as the lowest concentration that inhibited visible growth.

[4] = system: MSSA (ATCC #29213); experiment: MIC, dilution antimicrobial susceptibility test; assay type: cell-based, Methicillin-sensitive Staphylococcus aureus; settings: Staphylococcus aureus, 18 h
Method: as §1

[5] = in vivo; cited from earlier work

N#CC(C#N)=NNc1cccc(Cl)c1 [CCCP, carbonyl cyanide m-chlorophenylhydrazone, reference compound]
membrane depolarization (ratio of red to green fluorescence) [1]: membrane depolarization to a greater extent than ecteinamycin

CO[C@@H]1C[C@@H](C[C@H]2CC[C@H](C)[C@H]([C@@H](C)C(=O)O)O2)O[C@]2(O[C@](C)([C@H]3CC[C@@](C)([C@@H]4O[C@@H]([C@H]5O[C@@](O)(CO)[C@H](C)C[C@@H]5C)C[C@@H]4C)O3)C[C@H]2C)[C@@H]1C [Nigericin]
MIC [2]: 0.0025 µg/mL (≈ 0.00345 µM)

CN[C@H](CC(C)C)C(=O)N[C@H]1C(=O)N[C@@H](CC(N)=O)C(=O)N[C@H]2C(=O)N[C@H]3C(=O)N[C@H](C(=O)N[C@H](C(=O)O)c4cc(O)cc(O)c4-c4cc3ccc4O)[C@H](O)c3ccc(c(Cl)c3)Oc3cc2cc(c3O[C@@H]2O[C@H](CO)[C@@H](O)[C@H](O)[C@H]2O[C@H]2C[C@](C)(N)[C@H](O)[C@H](C)O2)Oc2ccc(cc2Cl)[C@H]1O [Vancomycin, reference compound]
MIC [3]: 1 µg/mL (≈ 0.69 µM) | MIC [4]: 1 µg/mL (≈ 0.69 µM)

CC[C@@]1([C@@H]2O[C@@H]([C@H]3O[C@@](O)(CO)[C@H](C)C[C@@H]3C)C[C@@H]2C)CC[C@H]([C@]2(C)CC[C@]3(C[C@H](O)[C@@H](C)[C@@H]([C@@H](C)[C@@H](OC)[C@H](C)C(=O)O)O3)O2)O1 [monensin]
oral bioavailability [5]: 30% | MIC [2]: 0.5 µg/mL (≈ 0.745 µM)

From patent US10660874B2, “Ecteinamycin, compositions and uses thereof” (Wisconsin Alumni Research Foundation, priority 2014, dated 2020)
